Data: paper PMC9186373, “Design, synthesis, and biological evaluation of novel carbazole derivatives as potent DNMT1 inhibitors with reasonable PK properties” (Journal of Enzyme Inhibition and Medicinal Chemistry, 2022)

How the values were obtained:
human DNMT1 = experiment: ELISA EpiQuik DNA methyltransferase (DNMT) activity/inhibitor assay; type: biochemical; conditions: for Inh% at 50 μM: 50 μM compound; for Inh% at 50 μM / Inh% at 100 μM: 200 nM purified DNMT1, EpiQuik kit; for Inh% at 100 μM: 100 μM compound; for DNMT1 inhibitory activity: SAR discussion of Table 1
Procedure: All the compounds were first screened using an ELISA EpiQuik DNA methyltransferase (DNMT) activity/inhibitor assay kit (Epigentek). To measure the effects of the compounds on human DNMT1 activity, 200 nM purified DNMT1 was incubated with 50 µM and 100 µM of the different compounds and S-adenosylmethionine in the DNMT assay buffer in the assay plate at 37 °C for 2 h[36]. Next, every sample was incubated with the capture and detection antibody, followed by incubation with developer solution for 10 min at room temperature. The absorbance was measured at 450 nm using a POLARstar Omega microplate reader (BMG). S-Adenosylhomocysteine (AdoHcy) was used as a positive control. Methylation inhibition assays for EZH2, LSD, and G9a were performed in modified Tris, pH 9.0, buffer using AlphaLisa technology. An amount of 10 µL of the reaction system contained a corresponding concentration of SAM (Sigma) (EZH2 50 µM, LSD 50 µM, and G9a 50 µM), which was the Km value in each enzymatic reaction, plus 100 nM biotinylated peptide H3 (1–21) (synthesis by GLChina) and the relevant enzyme concentration (0.03 nM EZH2, 0.03 nM LSD, and 0.03 nM G9a). The proteins were preincubated with various compound concentrations for 15 min at room temperature before the substrate and SAM were added. After 60 min of incubation at room temperature, acceptor and donor AlphaLisa beads were added according to the manufacturer’s recommendations. The signals were read in Alpha mode with an EnSpire multimode plate reader (PerkinElmer). IC50 values were derived by fitting the data for the inhibition percentage to a dose-response curve by non-linear regression in GraphPad Prism 5.0[20].
DNMT1 inhibition test was performed on 30 candidates to verify their biochemical activities. The EpiQuik DNA methyl-transferase (DNMT) activity/inhibitor assay kit (Epigentek) was used to identify the activity of synthetic compounds.

DNMT1 = DNMT1 (Homo sapiens, UniProt P26358); experiment: H3-labelled radioactive methylation assay; type: biochemical; conditions: H3-labeled radioactive methylation assay; 40 nM DNMT1
Chain of DNMT1 (P26358 whole entry): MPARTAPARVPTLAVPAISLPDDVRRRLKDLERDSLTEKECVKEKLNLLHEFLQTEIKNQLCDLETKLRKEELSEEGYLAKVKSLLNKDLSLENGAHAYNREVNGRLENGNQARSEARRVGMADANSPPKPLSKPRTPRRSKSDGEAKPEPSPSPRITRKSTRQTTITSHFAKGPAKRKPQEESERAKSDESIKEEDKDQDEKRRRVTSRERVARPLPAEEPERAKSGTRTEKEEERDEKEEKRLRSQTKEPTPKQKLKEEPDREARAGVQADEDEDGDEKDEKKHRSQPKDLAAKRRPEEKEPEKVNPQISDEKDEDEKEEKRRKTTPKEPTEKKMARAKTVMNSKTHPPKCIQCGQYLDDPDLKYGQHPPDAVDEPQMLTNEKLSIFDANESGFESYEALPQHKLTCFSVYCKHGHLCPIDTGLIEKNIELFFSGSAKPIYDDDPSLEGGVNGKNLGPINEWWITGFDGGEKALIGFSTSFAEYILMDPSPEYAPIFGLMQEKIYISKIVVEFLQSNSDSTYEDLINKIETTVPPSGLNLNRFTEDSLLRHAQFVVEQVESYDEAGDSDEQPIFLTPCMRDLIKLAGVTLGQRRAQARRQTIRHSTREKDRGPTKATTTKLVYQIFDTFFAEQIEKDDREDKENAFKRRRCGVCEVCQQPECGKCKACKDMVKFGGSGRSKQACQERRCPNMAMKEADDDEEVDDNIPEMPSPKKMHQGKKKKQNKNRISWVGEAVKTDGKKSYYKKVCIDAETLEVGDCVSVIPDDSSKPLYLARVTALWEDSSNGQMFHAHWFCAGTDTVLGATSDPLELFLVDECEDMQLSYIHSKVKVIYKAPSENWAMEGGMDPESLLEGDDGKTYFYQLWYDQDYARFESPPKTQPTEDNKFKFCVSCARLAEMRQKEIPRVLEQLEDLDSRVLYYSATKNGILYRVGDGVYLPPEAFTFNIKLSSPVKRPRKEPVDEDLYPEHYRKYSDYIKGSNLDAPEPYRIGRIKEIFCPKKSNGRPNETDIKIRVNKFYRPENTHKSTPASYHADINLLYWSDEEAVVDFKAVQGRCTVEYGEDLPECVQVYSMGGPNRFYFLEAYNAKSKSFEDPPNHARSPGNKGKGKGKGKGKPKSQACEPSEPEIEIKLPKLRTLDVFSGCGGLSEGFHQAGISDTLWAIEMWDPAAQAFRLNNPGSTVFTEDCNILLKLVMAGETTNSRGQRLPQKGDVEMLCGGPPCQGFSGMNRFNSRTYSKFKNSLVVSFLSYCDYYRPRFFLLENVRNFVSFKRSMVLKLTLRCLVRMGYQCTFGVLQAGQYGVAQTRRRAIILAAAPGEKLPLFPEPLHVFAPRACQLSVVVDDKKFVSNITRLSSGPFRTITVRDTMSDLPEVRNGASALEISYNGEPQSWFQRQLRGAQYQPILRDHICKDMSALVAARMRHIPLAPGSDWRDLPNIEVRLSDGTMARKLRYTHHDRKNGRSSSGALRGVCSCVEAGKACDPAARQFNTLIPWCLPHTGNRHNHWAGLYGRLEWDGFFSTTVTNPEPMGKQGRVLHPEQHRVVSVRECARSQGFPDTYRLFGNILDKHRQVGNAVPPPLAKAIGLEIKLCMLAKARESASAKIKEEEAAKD
Procedure: The DNMT1 radioactive methylation inhibition assays were performed in 30 µL reactions containing 0.1 µM adenosyl-L-methionine S-[methyl-^3H] (^3H-SAM, ^15 Ci/mmol, PerkinElmer), 0.25 µg/mL poly (dI-dC)·poly (dI-dC) (Sigma), 40 nM DNMT1 in 50 mM Tris-HCl, pH 8.0, 1 mM DTT, 5% glycerol, and 100 µg/mL BSA. The proteins were preincubated with a range of compound concentrations for 15 min at room temperature before adding the substrate and [^3H] SAM. After 60 min of incubation at 37 °C, the reaction systems were transferred to a MultiScreen HTS filter plate (Millipore), and the plate was washed 3 times with doubly distilled H2O via a vacuum. The radioactivity was determined by liquid scintillation counting (MicroBeta, PerkinElmer). IC50 values were derived by fitting the data for the inhibition percentage to a dose-response curve by non-linear regression in GraphPad Prism 5.0.
To quantitatively analyse DNMT1 inhibitory effect, the H^3-labelled radioactive methylation assay was conducted to measure the methyltransferase activity of DNMT1 at a range of concentrations for these compounds.

| Inh% at 50 μM (human DNMT1) [%] | Inh% at 100 μM (human DNMT1) [%] | IC50 (DNMT1) [µM] | melting point [°C] | DNMT1 inhibitory activity (human DNMT1) | SMILES |
| --- | --- | --- | --- | --- | --- |
| 56 | 60 |  | 55 to 57 |  | COc1ccccc1OCCNCC(O)Cn1c2ccccc2c2cc(F)ccc21 (centres unmarked) [WK-4, 1-(3-fluoro-9H-carbazol-9-yl)-3-((2-(2-methoxyphenoxy)ethyl)amino) propan-2-ol] |
| 5.1 | −9.0 |  | 71 to 73 |  | CC(C)(C)OC(=O)N1CCN(CC(O)Cn2c3ccccc3c3cc(F)ccc32)C[C@H]1CO (stereo partly drawn) [WK-10, (2S)-tert-butyl 4-(3-(3-fluoro-9H-carbazol-9-yl)-2-hydroxypropyl)-2-(hydroxymethyl)piperazine-1-carboxylate] |
| 41 | 50 |  | 35 to 37 |  | OC[C@@H]1CN(CC(O)Cn2c3ccccc3c3cc(F)ccc32)CCN1 (stereo partly drawn) [WK-11, 1-(3-Fluoro-9H-carbazol-9-yl)-3-((S)-3-(hydroxymethyl)piperazin-1-yl)propan-2-ol] |
| 27 | 46 |  | 93 to 95 |  | COc1ccccc1OCCNCC(O)Cn1c2ccc(F)cc2c2cc(F)ccc21 (centres unmarked) [WK-16, 1-(3,6-Difluoro-9H-carbazol-9-yl)-3-((2-(2-methoxyphenoxy)ethyl)amino) propan-2-ol] |
| 2.3 | 2.6 |  | 57 to 59 | inactive | OC(CNC1CC1)COC(Cn1c2ccccc2c2cc(F)ccc21)Cn1c2ccccc2c2cc(F)ccc21 (centres unmarked) [WK-24, 1-((1,3-Bis(3-fluoro-9H-carbazol-9-yl)propan-2-yl)oxy)-3-(cyclopropylamino)propan-2-ol] |
| 91 | 91 |  | 113 to 115 |  | OC(CNCCc1c[nH]c2ccccc12)COC(Cn1c2ccccc2c2cc(F)ccc21)Cn1c2ccc(F)cc2c2cc(F)ccc21 (centres unmarked) [WK-28, 1-((2-(1H-indol-3-yl)ethyl)amino)-3-((1-(3,6-difluoro-9H-carbazol-9-yl)-3-(3-fluoro-9H-carbazol-9-yl)propan-2-yl)oxy)propan-2-ol] |

The remaining lines, values behind:

| SMILES | Inh% at 50 μM (human DNMT1) [%] | Inh% at 100 μM (human DNMT1) [%] | IC50 (DNMT1) [µM] | melting point [°C] | DNMT1 inhibitory activity (human DNMT1) |
| --- | --- | --- | --- | --- | --- |
| OC(CNCCc1c[nH]c2ccccc12)Cn1c2ccccc2c2ccccc21 (centres unmarked) [DC_05, reference compound] | 43 | 88 | 52 |  |  |
| OC(CNCCc1ccc(F)cc1)Cn1c2ccccc2c2cc(F)ccc21 (centres unmarked) [WK-2, 1-(3-Fluoro-9H-carbazol-9-yl)-3-((4-fluorophenethyl)amino)propan-2-ol] | 55 | 66 |  | 109 to 111 |  |
| CCCCOCCCNCC(O)Cn1c2ccccc2c2cc(F)ccc21 (centres unmarked) [WK-5, 1-((3-Butoxypropyl)amino)-3-(3-fluoro-9H-carbazol-9-yl)propan-2-ol] | 59 | 65 |  | 71 to 73 |  |
| CC(O)CNCC(O)Cn1c2ccccc2c2cc(F)ccc21 (centres unmarked) [WK-6, 1-(3-Fluoro-9H-carbazol-9-yl)-3-((2-hydroxypropyl)amino)propan-2-ol] | 68 | 79 |  | 118 to 120 |  |
| C[C@@H](CNCC(O)Cn1c2ccccc2c2cc(F)ccc21)c1ccccc1 (stereo partly drawn) [WK-8, 1-(3-Fluoro-9H-carbazol-9-yl)-3-(((R)-2-phenylpropyl)amino)propan-2-ol] | 16 | 58 |  | 100 to 102 |  |
| OC(CNCc1ccc(F)cc1)Cn1c2ccccc2c2cc(F)ccc21 (centres unmarked) [WK-9, 1-(3-Fluoro-9H-carbazol-9-yl)-3-((4-fluorobenzyl)amino)propan-2-ol] | 25 | 53 |  | 130 to 132 |  |
| CCCCOCCCNCC(O)Cn1c2ccc(F)cc2c2cc(F)ccc21 (centres unmarked) [WK-17, 1-((3-butoxypropyl)amino)-3-(3,6-difluoro-9H-carbazol-9-yl)propan-2-ol] | 73 | 79 |  | 94 to 96 |  |
| OC(CNCCc1c[nH]c2ccccc12)Cn1c2ccccc2c2ccncc21 (centres unmarked) [WK-20, 1-((2-(1H-indol-3-yl)ethyl)amino)-3-(9H-pyrido[3,4-b]indol-9-yl)propan-2-ol] | 68 | 77 |  | 85 to 87 |  |
| OC(CNCCc1c[nH]c2ccccc12)Cn1c2ccccc2c2cccnc21 (centres unmarked) [WK-21, 1-((2-(1H-indol-3-yl)ethyl)amino)-3-(9H-pyrido[2,3-b]indol-9-yl)propan-2-ol] | 39 | 34 |  | 107 to 109 |  |
| CC(C)(C)OC(=O)N1CCN(CC(O)COC(Cn2c3ccccc3c3cc(F)ccc32)Cn2c3ccc(F)cc3c3cc(F)ccc32)C[C@@H]1CO (stereo partly drawn) [WK-26, (2R)-tert-butyl 4-(3-((1-(3,6-difluoro-9H-carbazol-9-yl)-3-(3-fluoro-9H-carbazol-9-yl)propan-2-yl)oxy)-2-hydroxypropyl)-2-(hydroxymethyl)piperazine-1-carboxylate] | 8.7 | −16 |  | 74 to 76 | lost its activity |
| CCCCOCCCNCC(O)COC(Cn1c2ccccc2c2cc(F)ccc21)Cn1c2ccc(F)cc2c2cc(F)ccc21 (centres unmarked) [WK-29, 1-((3-Butoxypropyl)amino)-3-((1-(3,6-difluoro-9H-carbazol-9-yl)-3-(3-fluoro-9H-carbazol-9-yl)propan-2-yl)oxy)propan-2-ol] | 85 | 80 |  | 151 to 153 |  |
